Where “and” joins values, the source holds several entries; their conditions need not be identical. Equal entries are not always repeated. Inconclusive results and toxic doses are left out. The calls were made as follows: active = survival T/C of 150% or more; inactive = T/C below 125% in these data.
Test system: C57BL/6 mice, intracerebral ependymoblastoma, median survival T/C
Assay: NCI In Vivo Anticancer Drug Screen. Data for tumor model Ependymoblastoma (intracerebral) in C57BL/6 mice
Conditions: endpoint: median survival time, higher = longer survival
Description: The antitumor activity of compounds was measured in mice bearing transplantable tumors. Survival or tumor size were measured and the results are expressed as the measurement made in the treated group (T) divided by the measurement made in the vehicle treated control group (C). The tumor model used in this assay is Ependymoblastoma (intracerebral) in C57BL/6 mice

[1] = dose: 16.0 mg/kg/injection, schedule: Q01DX005 (ip), vehicle: saline
[2] = dose: 32.0 mg/kg/injection, schedule: Q01DX005 (ip), vehicle: saline
[3] = dose: 32.0 mg/kg/injection, schedule: Q#A X002 (ip), vehicle: saline
[4] = dose: 64.0 mg/kg/injection, schedule: Q#A X002 (ip), vehicle: saline
[5] = dose: 128.0 mg/kg/injection, schedule: Q#A X002 (ip), vehicle: saline
[6] = dose: 1.0 mg/kg/injection, schedule: Q01DX005 (ip), vehicle: Klucel (hydroxypropylcellulose) (HPC)
[7] = dose: 2.0 mg/kg/injection, schedule: Q01DX005 (ip), vehicle: Klucel (hydroxypropylcellulose) (HPC)
[8] = dose: 4.0 mg/kg/injection, schedule: Q01DX005 (ip), vehicle: Klucel (hydroxypropylcellulose) (HPC)
[9] = dose: 16.0 mg/kg/injection, schedule: Q01DX005 (ip), vehicle: Klucel (hydroxypropylcellulose) (HPC)

Measured: T/C

CN(N=O)C(=O)N[C@@H](C=O)[C@@H](O)[C@H](O)[C@H](O)CO
inactive: dose: 14.5 mg/kg/injection, schedule: Q## X006 (ip), vehicle: saline 109 % of control | dose: 16.0 mg/kg/injection, schedule: Q01DX001 (ip), vehicle: saline 98 % of control and 109 % of control | dose: 16.0 mg/kg/injection, schedule: Q01DX005 (ip), vehicle: other 113 % of control | [1] 117 % of control | dose: 16.0 mg/kg/injection, schedule: Q#A X002 (ip), vehicle: saline 100 % of control and 108 % of control | dose: 29.0 mg/kg/injection, schedule: Q## X006 (ip), vehicle: saline 111 % of control | dose: 32.0 mg/kg/injection, schedule: Q01DX001 (ip), vehicle: other 105 % of control | dose: 32.0 mg/kg/injection, schedule: Q01DX001 (oral), vehicle: other 116 % of control | dose: 32.0 mg/kg/injection, schedule: Q01DX005 (ip), vehicle: other 120 % of control | [2] 114 % of control | dose: 32.0 mg/kg/injection, schedule: Q01DX005 (oral), vehicle: other 95 % of control | dose: 32.0 mg/kg/injection, schedule: Q01DX005 (oral), vehicle: saline 102 % of control | dose: 32.0 mg/kg/injection, schedule: Q## X006 (ip), vehicle: other 112 % of control | [3] 104 % of control and 114 % of control | dose: 57.9 mg/kg/injection, schedule: Q## X006 (ip), vehicle: saline 114 % of control | dose: 64.0 mg/kg/injection, schedule: Q01DX001 (oral), vehicle: other 102 % of control | dose: 64.0 mg/kg/injection, schedule: Q01DX005 (ip), vehicle: other 110 % of control | dose: 64.0 mg/kg/injection, schedule: Q01DX005 (oral), vehicle: other 103 % of control | dose: 64.0 mg/kg/injection, schedule: Q01DX005 (oral), vehicle: saline 101 % of control | dose: 64.0 mg/kg/injection, schedule: Q## X006 (ip), vehicle: other 116 % of control | [4] 89 % of control and 118 % of control | dose: 128.0 mg/kg/injection, schedule: Q01DX001 (oral), vehicle: other 101 % of control | dose: 128.0 mg/kg/injection, schedule: Q01DX005 (oral), vehicle: saline 98 % of control | dose: 128.0 mg/kg/injection, schedule: Q## X006 (ip), vehicle: other 121 % of control | [5] 89 % of control and 113 % of control | dose: 231.7 mg/kg/injection, schedule: Q## X006 (ip), vehicle: saline 119 % of control | dose: 256.0 mg/kg/injection, schedule: Q01DX001 (oral), vehicle: other 113 % of control | dose: 256.0 mg/kg/injection, schedule: Q01DX005 (oral), vehicle: other 93 % of control | dose: 256.0 mg/kg/injection, schedule: Q01DX005 (oral), vehicle: saline 103 % of control | dose: 256.0 mg/kg/injection, schedule: Q#A X002 (ip), vehicle: saline 92 % of control | dose: 512.0 mg/kg/injection, schedule: Q01DX001 (oral), vehicle: other 113 % of control | dose: 512.0 mg/kg/injection, schedule: Q01DX005 (oral), vehicle: saline 113 % of control | dose: 1024.0 mg/kg/injection, schedule: Q01DX001 (oral), vehicle: other 117 % of control

O=C(N/N=C\c1cc(Br)cc(Br)c1O)N/N=C/c1cc(Br)cc(Br)c1O
inactive: dose: 32.0 mg/kg/injection, schedule: Q01DX005 (ip), vehicle: saline with Tween-80 88 % of control | dose: 64.0 mg/kg/injection, schedule: Q01DX005 (ip), vehicle: saline with Tween-80 97 % of control | dose: 128.0 mg/kg/injection, schedule: Q01DX005 (ip), vehicle: saline with Tween-80 88 % of control | dose: 256.0 mg/kg/injection, schedule: Q01DX005 (ip), vehicle: saline with Tween-80 93 % of control

Nc1nc([Se])c2ncn(C3OC(CO)C(O)C3O)c2n1 (centres undefined)
inactive: dose: 0.25 mg/kg/injection, schedule: Q01DX005 (ip), vehicle: Klucel (hydroxypropylcellulose) (HPC) 103 % of control and 106 % of control | dose: 0.5 mg/kg/injection, schedule: Q01DX005 (ip), vehicle: Klucel (hydroxypropylcellulose) (HPC) 107 % of control and 112 % of control | [6] 99 % of control and 101 % of control | [7] 100 % of control and 102 % of control and 112 % of control | [8] 88 % of control and 105 % of control and 112 % of control | dose: 4.0 mg/kg/injection, schedule: Q01DX005 (ip), vehicle: saline with Tween-80 96 % of control | dose: 4.0 mg/kg/injection, schedule: Q01DX005 (ip), vehicle: saline 100 % of control | dose: 8.0 mg/kg/injection, schedule: Q01DX005 (ip), vehicle: saline with Tween-80 100 % of control | dose: 8.0 mg/kg/injection, schedule: Q01DX005 (ip), vehicle: saline 98 % of control and 99 % of control | [9] 102 % of control and 103 % of control | dose: 16.0 mg/kg/injection, schedule: Q01DX005 (ip), vehicle: saline with Tween-80 113 % of control | [1] 106 % of control and 111 % of control | dose: 27.8 mg/kg/injection, schedule: Q## X006 (ip), vehicle: saline 108 % of control | [2] 116 % of control | [3] 95 % of control and 104 % of control | dose: 55.7 mg/kg/injection, schedule: Q## X006 (ip), vehicle: saline 112 % of control | [4] 101 % of control and 120 % of control | [5] 87 % of control

O=C1NC2(CCCCC2)C(=O)N1CCN(CCCl)CCCl
inactive: dose: 0.75 mg/kg/injection, schedule: Q01DX009 (ip), vehicle: Klucel (hydroxypropylcellulose) (HPC) 101 % of control | [6] 101 % of control | dose: 1.0 mg/kg/injection, schedule: Q01DX005 (ip), vehicle: saline 105 % of control | dose: 1.5 mg/kg/injection, schedule: Q01DX009 (ip), vehicle: Klucel (hydroxypropylcellulose) (HPC) 100 % of control | [7] 105 % of control | dose: 2.0 mg/kg/injection, schedule: Q01DX005 (ip), vehicle: saline 93 % of control and 108 % of control | dose: 3.0 mg/kg/injection, schedule: Q01DX009 (ip), vehicle: Klucel (hydroxypropylcellulose) (HPC) 106 % of control | [8] 102 % of control | dose: 6.25 mg/kg/injection, schedule: Q01DX005 (ip), vehicle: Klucel (hydroxypropylcellulose) (HPC) 119 % of control | dose: 8.0 mg/kg/injection, schedule: Q01DX005 (ip), vehicle: Klucel (hydroxypropylcellulose) (HPC) 94 % of control and 107 % of control | dose: 12.5 mg/kg/injection, schedule: Q01DX005 (ip), vehicle: Klucel (hydroxypropylcellulose) (HPC) 114 % of control | [9] 97 % of control | [2] 111 % of control

CCC(=O)NC1=C(N2CC2C)C(=O)C(NC(=O)CC)=C(N2CC2C)C1=O (centres undefined)
inactive: dose: 6.25 mg/kg/injection, schedule: Q01DX009 (ip), vehicle: Klucel (hydroxypropylcellulose) (HPC) 105 % of control

O=P1(NCCCl)OCCCN1CCCl (centres undefined)
inactive: dose: 6.25 mg/kg/injection, schedule: Q01DX005 (ip), vehicle: saline 122 % of control | dose: 12.5 mg/kg/injection, schedule: Q01DX005 (ip), vehicle: saline 110 % of control | dose: 25.0 mg/kg/injection, schedule: Q01DX005 (ip), vehicle: saline 114 % of control | dose: 25.0 mg/kg/injection, schedule: Q01DX005 (ip), vehicle: water 92 % of control and 117 % of control | dose: 50.0 mg/kg/injection, schedule: Q01DX001 (ip), vehicle: water 96 % of control | dose: 50.0 mg/kg/injection, schedule: Q01DX005 (ip), vehicle: water 90 % of control | dose: 100.0 mg/kg/injection, schedule: Q01DX001 (ip), vehicle: water 106 % of control | dose: 100.0 mg/kg/injection, schedule: Q01DX005 (ip), vehicle: water 106 % of control and 123 % of control | dose: 200.0 mg/kg/injection, schedule: Q01DX001 (ip), vehicle: water 119 % of control | dose: 200.0 mg/kg/injection, schedule: Q01DX005 (ip), vehicle: water 116 % of control

O=c1n(CC2CO2)c(=O)n(CC2CO2)c(=O)n1CC1CO1 (centres undefined)
inactive: dose: 20.0 mg/kg/injection, schedule: Q01DX009 (ip), vehicle: saline 114 % of control | dose: 25.0 mg/kg/injection, schedule: Q01DX009 (ip), vehicle: saline 114 % of control | dose: 40.0 mg/kg/injection, schedule: Q01DX009 (ip), vehicle: saline 124 % of control | dose: 50.0 mg/kg/injection, schedule: Q01DX009 (ip), vehicle: saline 111 % of control | dose: 100.0 mg/kg/injection, schedule: Q01DX009 (ip), vehicle: saline 95 % of control

Source: PubChem BioAssay AID222 (DTP/NCI, 2004)
